Results as given in publication PMC10964233, “Antigen-Mimic Nanoparticles in Ultrasensitive on-Chip Integrated Anti-p53 Antibody Quantification” (ACS Sensors, 2024).

Assays:
[1] = tested on: DO-1 peptide/HRP-IONPs with Con A-modified SPCEs; assay: Assay specificity (SWV responses of interferents); settings: equivalent MAC immunoisolation conditions, Figure S17
Experimental: Following a 10 min incubation of the antibody–IONP immunocomplexes on Con A-modified SPCEs, and subsequent washing with PBS, 100 μL of the high-sensitivity TMB substrate was added and left to react for 5 min. Square-wave voltammetry (SWV) scans were then conducted from +1.0 to −0.5 V (vs Ag/AgCl), at an amplitude of 20 mV, a potential step of 2 mV, and a frequency of 50 Hz. […] Recovery assays were conducted using DO-1 antibodies spiked into 1.0 mg/mL BSA or 1.0% human serum (human male AB plasma, Sigma, UK).
To evaluate the performance in spiked samples, recovery tests were performed in 1.0 mg/mL BSA and diluted human serum.

[2] = tested on: Con A-modified electrode interfaces; assay: Antibody selectivity of Con A-modified electrode interfaces; format: binding; settings: 1.0 mg/mL nonspecific protein; Figure S7
Concanavalin A = assay: SPR + other: electrochemical impedance spectroscopy; SPR at Con A-saturated gold chips with a BSA-saturated surface as reference (298 K, 30 uL/min, 10 mM PBS pH 7.4); EIS at Con A-modified SPCEs in 5 mM [Fe(CN)6]3-/4- PBS pH 7.4; both responses fitted to Langmuir-Freundlich isotherms, Kd from the plot mean

For bovine serum albumin [BSA], the “Voltammetric response relative to 50 ng/mL DO-1 antibody” value ([1]; 1.0 mg/mL) was less than 10% and the “Response at Con A interface relative to DO-1 antibody” value [2] was less than 10%.
immunoglobulin G was tested, and the “Voltammetric response relative to 50 ng/mL DO-1 antibody” value ([1]; 10.0 μg/mL (antibody control)) was less than 10%.
With monoclonal DO-1 antibody the Kd (Concanavalin A) was 13.6 nM.
